Reference: patent US11712434B2, “Compound having anti-cancer effect, and preparation method therefor and use thereof” (3D MEDICINES (BEIJING) CO., LTD., priority 2016, dated 2023)

Experiments:
Assay in all cases: Cell proliferation assay (Alamar Blue)
Format in all cases: cell-based
MDA-MB-231 = MDA-MB-231 tumor cell line, 6 days culture
Experimental: (§1) 1. Instruments and Materials • Thermo 311 CO2 incubator; Haier biosafety cabinet; Molecular Devices microplate reader; Xiangyi brand L530 desktop low speed centrifuge; Olympus IX51 inverted fluorescence microscope, DMEM, RPMI 1640, MEM, DMEM/F12 1:1 medium, Fetal bovine serum, 0.25% trypsin solution, phosphate buffer (Thermo Fisher Shanghai Co., Ltd.); sigma dimethyl sulfoxide (DMSO), resazurin; 54 commercial tumor cell lines (including 26 liver cancer cell lines). Experimental drugs: compounds 1-12 and active drug Linifanib; chemotherapeutic drug Doxorubicin (HY-15142; Shanghai Qianyuan Biomedical Technology Co., Ltd.).
(§2) 2. Experimental Methods • 2.1 Cultivation of Different Cell Lines • 54 cell lines were cultured in a culture medium containing fetal bovine serum and placed in a 5% CO2 incubator at 37° C. for incubation. The cells were all grown in an adherent state, and the growth was observed under an inverted microscope, and subculture was performed when the cell confluence rate reached 80%-90%. The proportion and quantity of passage were determined by experimental needs. The ratio of subculture of this cell line was generally 1:2^˜1:3. • 2.2 Inhibition Effect on the Proliferation of Different Tumor Cell Lines • Cell test: 54 cell lines in logarithmic growth phase were inoculated in 96-well culture plates at 500^˜1×10^4/well (the optimal seeding density of each cell line was determined in pre-experiment), After incubating at 37° C. for 4 h in a 5% CO2 humidification incubator, added 10 μL of compounds 1-12 or Linifanib to each well, and tested 9 drug concentration gradients for each compound (diluted from the highest concentration of the test by 3.16 times). The solubility of each compound was different at a starting concentration of 100 or 30 μM, respectively. The QC reference compound Doxorubicin was added simultaneously to each cell line test, and the final drug concentrations were 10, 3.16, 1, 0.31, 0.1, 0.03, 0.01, 0.003, and 0.001 μM, respectively. In addition, a positive control group (100% inhibition) and a negative control group (0% inhibition) were set at the same time. The drug group was repeated for 2 wells per concentration, and the positive control group and the negative control group were repeated for 6 wells. After the culture was continued for 6 days in the incubator, AlamarBlue test operation was followed; • AlamarBlue test procedure: Incubated with 10 μL of AlamarBlue reagent per well for 1-4 h, shook for 1-2 min, MD microplate reader EX: 560 nm, EM: 590 nm wavelength to measure fluorescence, recorded the results, calculated the cell inhibition rate of the compound of the invention. Cell inhibition rate (%)=(A0% inhibition−A administration)/(A0% inhibition−A100% inhibition)×100%, and then using the method of nonlinear regression using GraphPad Prism 5.0 or MATILAB software (usually using four parameters) to graph and obtain a drug dose response curve to obtain an IC50 value of the compound of the present invention acting on a cancer cell line.

SNU475 = SNU475 liver cancer cell line, 6 days culture
Experimental: as §1, §2

NCI-H2170 = NCI-H2170 tumor cell line, 6 days culture
Experimental: as §1, §2

SNU449 = SNU449 liver cancer cell line, 6 days culture
Experimental: as §1, §2

TE-15 = TE-15 tumor cell line, 6 days culture
Experimental: as §1, §2

SNU886 = SNU886 liver cancer cell line, 6 days culture
Experimental: as §1, §2

JHH4 = JHH4 liver cancer cell line, 6 days culture
Experimental: as §1, §2

DLD1 = DLD1 tumor cell line, 6 days culture
Experimental: as §1, §2

JHH5 = JHH5 liver cancer cell line, 6 days culture
Experimental: as §1, §2

HT1080 = HT1080 tumor cell line, 6 days culture
Experimental: as §1, §2

T.T = T.T tumor cell line, 6 days culture
Experimental: as §1, §2

JHH7 = JHH7 liver cancer cell line, 6 days culture
Experimental: as §1, §2

HuTu80 = HuTu80 tumor cell line, 6 days culture
Experimental: as §1, §2

SK-HEP-1 = SK-HEP-1 liver cancer cell line, 6 days culture
Experimental: as §1, §2

K562 = K562 tumor cell line, 6 days culture
Experimental: as §1, §2

HUH6 = HUH6 liver cancer cell line, 6 days culture
Experimental: as §1, §2

KM12 = KM12 tumor cell line, 6 days culture
Experimental: as §1, §2

MG63 = MG63 tumor cell line, 6 days culture
Experimental: as §1, §2

SNU423 = SNU423 liver cancer cell line, 6 days culture
Experimental: as §1, §2

HLE = HLE liver cancer cell line, 6 days culture
Experimental: as §1, §2

JHH2 = JHH2 liver cancer cell line, 6 days culture
Experimental: as §1, §2

JHH1 = JHH1 liver cancer cell line, 6 days culture
Experimental: as §1, §2

SNU761 = SNU761 liver cancer cell line, 6 days culture
Experimental: as §1, §2

AN3CA = AN3CA tumor cell line, 6 days culture
Experimental: as §1, §2

HT55 = HT55 tumor cell line, 6 days culture
Experimental: as §1, §2

MDA-MB-435S = MDA-MB-435S tumor cell line, 6 days culture
Experimental: as §1, §2

SNU354 = SNU354 liver cancer cell line, 6 days culture
Experimental: as §1, §2

TE-6 = TE-6 tumor cell line, 6 days culture
Experimental: as §1, §2

`Cc1ccc(F)c(NC(=O)Nc2ccc(-c3cccc4[nH]nc(NC(=O)C[C@H](N)C(=O)O)c34)cc2)c1` [Compound 10] showed an IC50 (MDA-MB-231; Homo sapiens, 144 h) of 4.63 µM, an IC50 (SNU475; Homo sapiens, SNU-475, 144 h) of 4.39 µM and an IC50 (NCI-H2170; Homo sapiens, 144 h) of 4.28 µM. The IC50 (SNU449; Homo sapiens, SNU-449, 144 h) was 13.9 µM, the IC50 (TE-15; Homo sapiens, 144 h) was 2.58 µM and the IC50 (SNU886; SNU-886, 144 h) was 6.19 µM. It also gave an IC50 (JHH4; JHH-4, 144 h) of 14.4 µM, an IC50 (DLD1; Homo sapiens, DLD-1, 144 h) of 10.5 µM and an IC50 (JHH5; 144 h) of 13.4 µM. For the same compound, the IC50 (HT1080; Homo sapiens, HT-1080, 144 h) was 7.83 µM, the IC50 (T.T; Homo sapiens, TT, 144 h) was 7.38 µM and the IC50 (JHH7; 144 h) was 1.36 µM. For the same compound, the IC50 (HuTu80; Homo sapiens, 144 h) was 1.84 µM, the IC50 (SK-HEP-1; Homo sapiens, SK-HEP1, 144 h) was 14.9 µM and the IC50 (K562; Homo sapiens, 144 h) was 14.6 µM. It also gave an IC50 (HUH6; Homo sapiens, HuH-6, 144 h) of 43.8 µM, an IC50 (KM12; Homo sapiens, 144 h) of 2.43 µM and an IC50 (MG63; Homo sapiens, MG-63, 144 h) of 1.95 µM. The IC50 (SNU423; Homo sapiens, SNU-423, 144 h) was 15.3 µM, the IC50 (HLE; Homo sapiens, 144 h) was 2.16 µM and the IC50 (JHH2; JHH-2, 144 h) was 36.8 µM. The IC50 (JHH1; 144 h) was 14.5 µM, the IC50 (SNU761; 144 h) was 8.73 µM and the IC50 (AN3CA; Homo sapiens, AN3-CA, 144 h) was 0.27 µM. For the same compound, the IC50 (HT55; Homo sapiens, 144 h) was 18.5 µM, the IC50 (MDA-MB-435S; Homo sapiens, 144 h) was 9.46 µM and the IC50 (SNU354; Homo sapiens, SNU-354, 144 h) was 3.33 µM. The IC50 (TE-6; Homo sapiens, 144 h) was 6.98 µM.
In the case of `Cc1ccc(F)c(NC(=O)Nc2ccc(-c3cccc4[nH]nc(NC(=O)CCCCCNC(=O)C[C@H](N)C(=O)O)c34)cc2)c1` [Compound 11], the IC50 (MDA-MB-231) is reported as over 100 µM, the IC50 (SNU475) is reported as over 100 µM and the IC50 (NCI-H2170) is reported as over 100 µM. For the same compound, the IC50 (SNU449) was over 100 µM, the IC50 (TE-15) was over 100 µM and the IC50 (SNU886) was over 100 µM. It also gave an IC50 (JHH4) of over 100 µM, an IC50 (DLD1) of over 100 µM and an IC50 (JHH5) of over 100 µM. For the same compound, the IC50 (HT1080) was over 100 µM, the IC50 (T.T) was over 100 µM and the IC50 (JHH7) was over 100 µM. The IC50 (HuTu80) was 63.1 µM, the IC50 (SK-HEP-1) was over 100 µM and the IC50 (K562) was over 100 µM. It also gave an IC50 (HUH6) of over 100 µM, an IC50 (KM12) of over 100 µM and an IC50 (MG63) of over 100 µM. The IC50 (SNU423) was over 100 µM, the IC50 (HLE) was over 100 µM and the IC50 (JHH2) was over 100 µM. For the same compound, the IC50 (JHH1) was over 100 µM, the IC50 (SNU761) was over 100 µM and the IC50 (AN3CA) was 17.4 µM. The IC50 (HT55) was over 100 µM, the IC50 (MDA-MB-435S) was over 100 µM and the IC50 (SNU354) was over 100 µM. For the same compound, the IC50 (TE-6) was over 100 µM.
Work on `Cc1ccc(F)c(NC(=O)Nc2ccc(-c3cccc4[nH]nc(NC(=O)CCCCCCCCCCCNC(=O)C[C@H](N)C(=O)O)c34)cc2)c1` [Compound 12] yielded an IC50 (MDA-MB-231) of 79.5 µM, an IC50 (SNU475) of over 100 µM and an IC50 (NCI-H2170) of 59.2 µM. For the same compound, the IC50 (SNU449) was over 100 µM, the IC50 (TE-15) was over 100 µM and the IC50 (SNU886) was 41.9 µM. It also gave an IC50 (JHH4) of over 100 µM, an IC50 (DLD1) of over 100 µM and an IC50 (JHH5) of over 100 µM. It also gave an IC50 (HT1080) of over 100 µM, an IC50 (T.T) of over 100 µM and an IC50 (JHH7) of 67.2 µM. For the same compound, the IC50 (HuTu80) was 44.4 µM, the IC50 (SK-HEP-1) was over 100 µM and the IC50 (K562) was over 100 µM. It also gave an IC50 (HUH6) of over 100 µM, an IC50 (KM12) of 82.5 µM and an IC50 (MG63) of over 100 µM. For the same compound, the IC50 (SNU423) was over 100 µM, the IC50 (HLE) was over 100 µM and the IC50 (JHH2) was over 100 µM. For the same compound, the IC50 (JHH1) was over 100 µM, the IC50 (SNU761) was over 100 µM and the IC50 (AN3CA) was 3.84 µM. It also gave an IC50 (HT55) of over 100 µM, an IC50 (MDA-MB-435S) of over 100 µM and an IC50 (SNU354) of 97.3 µM. For the same compound, the IC50 (TE-6) was over 100 µM.
